Assay results as given in patent US11319303B2 (WIGEN BIOMEDICINE TECHNOLOGY (SHANGHAI) CO., LTD., priority 2017, dated 2022).
pIC50: −log10 of the molar value. Where two headings read alike, the source gives them in different places.

Target: LC3B (Homo sapiens, UniProt Q9GZQ8)
Assay: Fluorescence Polarization (FP) Assay: displacement of FITC-labeled peptide from GST-LC3B
Assay type: binding
Procedure: The compounds of the present invention for regulating the autophagy-related protein LC3B were tested by Fluorescence Polarization (FP) Assay.
Fluorescence Polarization (FP) Assay Test

[1] = Fluorescence Polarization assay, GST-LC3B 180 nM, FITC-labeled peptide 18 nM, 25° C., read-out: IC50

Structure (SMILES): CCCCn1cccc1C1CC(=O)C(=CN(C)C)C(=O)C1 (centres unmarked) [Compound 279, 5-(1-butyl-1H-pyrrol-2-yl)-2-((dimethylamino)methylene) cyclohexane-1,3-dione]
- pIC50 [1]: 4.82 to 5.52

Structure (SMILES): CN(C)C=C1C(=O)CC(c2cccc3c2CCCC3)CC1=O (centres unmarked) [Compound 280, 2-((dimethylamino)methylene)-5-(5,6,7,8-tetrahydro-naphthalen-1-yl)cyclohexane-1,3-dione]
- pIC50 [1]: > 5.52

Structure (SMILES): CN(C)C=C1C(=O)CC(c2ccc3[nH]ccc3c2)CC1=O (centres unmarked) [Compound 281, 2-((dimethylamino)methylene)-5-(1H-indol-5-yl)cyclohexane-1,3-dione]
- pIC50 [1]: > 5.52

Structure (SMILES): CN(C)C=C1C(=O)CC(c2csc3ccccc23)CC1=O (centres unmarked) [Compound 282, 5-(benzo[b]thiophen-3-yl)-2-((dimethylamino)methylene) cyclohexane-1,3-dione]
- pIC50 [1]: > 5.52

Structure (SMILES): CN(C)C=C1C(=O)CC(c2c[nH]c3ccccc23)CC1=O (centres unmarked) [Compound 283, 2-((dimethylamino)methylene)-5-(1H-indol-3-yl)cyclohexane-1,3-dione]
- pIC50 [1]: > 5.52

Structure (SMILES): CC(C)Cn1cccc1C1CC(=O)C(=CN(C)C)C(=O)C1 (centres unmarked) [Compound 284, 2-((dimethylamino)methylene)-5-(1-isobutyl-1H-pyrrol-2-yl)cyclohexane-1,3-dione]
- pIC50 [1]: 4.82 to 5.52

Structure (SMILES): CN(C)C=C1C(=O)CC(c2ccnc3ccccc23)CC1=O (centres unmarked) [Compound 285, 2-((dimethylamino)methylene)-5-(quinolin-4-yl)cyclohexane-1,3-dione]
- pIC50 [1]: 4.82 to 5.52

Structure (SMILES): CN(C)C=C1C(=O)CC(c2n[nH]c3ccccc23)CC1=O (centres unmarked) [Compound 286, 2-((dimethylamino)methylene)-5-(1H-indazol-3-yl)cyclohexane-1,3-dione]
- pIC50 [1]: > 5.52

Structure (SMILES): CN(C)C=C1C(=O)CC(c2cncc3ccccc23)CC1=O (centres unmarked) [Compound 287, 2-((dimethylamino)methylene)-5-(isoquinolin-4-yl)cyclohexane-1,3-dione]
- pIC50 [1]: 4.82 to 5.52

Structure (SMILES): CN(C)C=C1C(=O)CC(c2cccn2Cc2ccccc2)CC1=O (centres unmarked) [Compound 288, 5-(1-benzyl-1H-pyrrol-2-yl)-2-((dimethylamino)methylene) cyclohexane-1,3-dione]
- pIC50 [1]: 4.82 to 5.52

Structure (SMILES): Cc1ccccc1Cc1ccccc1C1CC(=O)C(=CN(C)C)C(=O)C1 (centres unmarked) [Compound 289, 2-((dimethylamino)methylene)-5-(2-(2-methylbenzyl)phenyl) cyclohexane-1,3-dione]
- pIC50 [1]: 4.82 to 5.52

Structure (SMILES): Cc1cccc(Cc2ccccc2C2CC(=O)C(=CN(C)C)C(=O)C2)c1 (centres unmarked) [Compound 290, 2-((dimethylamino)methylene)-5-(2-(3-methylbenzyl)phenyl) cyclohexane-1,3-dione]
- pIC50 [1]: 4.82 to 5.52

Structure (SMILES): Cc1ccc(Cc2ccccc2C2CC(=O)C(=CN(C)C)C(=O)C2)cc1 (centres unmarked) [Compound 291, 2-((dimethylamino)methylene)-5-(2-(4-methylbenzyl)phenyl) cyclohexane-1,3-dione]
- pIC50 [1]: 4.82 to 5.52

Structure (SMILES): Cc1ccc2c(C3CC(=O)C(=CN(C)C)C(=O)C3)c[nH]c2c1 (centres unmarked) [Compound 293, 2-((dimethylamino)methylene)-5-(6-methyl-1H-indol-3-yl)cyclohexane-1,3-dione]
- pIC50 [1]: 4.82 to 5.52

Structure (SMILES): CN(C)C=C1C(=O)CC(c2cn(C)c3ccccc23)CC1=O (centres unmarked) [Compound 294, 2-((dimethylamino)methylene)-5-(1-methyl-1H-indol-3-yl)cyclohexane-1,3-dione]
- pIC50 [1]: > 5.52

Structure (SMILES): CN(C)C=C1C(=O)CC(c2cccc3c2ccn3C)CC1=O (centres unmarked) [Compound 295, 2-((dimethylamino)methylene)-5-(1-methyl-1H-indol-4-yl)cyclohexane-1,3-dione]
- pIC50 [1]: 4.82 to 5.52

Structure (SMILES): Cc1[nH]c2ccccc2c1C1CC(=O)C(=CN(C)C)C(=O)C1 (centres unmarked) [Compound 296, 2-((dimethylamino)methylene)-5-(2-methyl-1H-indol-3-yl)cyclohexane-1,3-dione]
- pIC50 [1]: > 5.52

Structure (SMILES): Cc1cccc2c(C3CC(=O)C(=CN(C)C)C(=O)C3)c[nH]c12 (centres unmarked) [Compound 297, 2-((dimethylamino)methylene)-5-(7-methyl-1H-indol-3-yl)cyclohexane-1,3-dione]
- pIC50 [1]: > 5.52

Structure (SMILES): Cc1cccc2[nH]cc(C3CC(=O)C(=CN(C)C)C(=O)C3)c12 (centres unmarked) [Compound 298, 2-((dimethylamino)methylene)-5-(4-methyl-1H-indol-3-yl)cyclohexane-1,3-dione]
- pIC50 [1]: > 5.52

Structure (SMILES): Cc1ccc2[nH]cc(C3CC(=O)C(=CN(C)C)C(=O)C3)c2c1 (centres unmarked) [Compound 299, 2-((dimethylamino)methylene)-5-(5-methyl-1H-indol-3-yl)cyclohexane-1,3-dione]
- pIC50 [1]: 4.82 to 5.52

Structure (SMILES): CN(C)CCNC=C1C(=O)CC(c2ccccc2I)CC1=O (centres unmarked) [Compound 300, 2-(((2-(dimethylamino)ethyl)amino)methylene)-5-(2-iodophenyl) cyclohexane-1,3-dione]
- pIC50 [1]: > 5.52

Structure (SMILES): CN(C)CCNC=C1C(=O)CC(c2ccc(F)cc2F)CC1=O (centres unmarked) [Compound 301, 5-(2,4-difluorophenyl)-2-(((2-(dimethylamino)ethyl)amino)methylene) cyclohexane-1,3-dione]
- pIC50 [1]: > 5.52

Structure (SMILES): CN(C)CCNC=C1C(=O)CC(c2cc(F)ccc2F)CC1=O (centres unmarked) [Compound 302, 5-(2,5-difluorophenyl)-2-(((2-(dimethylamino)ethyl)amino)methylene) cyclohexane-1,3-dione]
- pIC50 [1]: > 5.52

Structure (SMILES): CN(C)CCNC=C1C(=O)CC(c2cccc(F)c2F)CC1=O (centres unmarked) [Compound 304, 5-(2,3-difluorophenyl)-2-(((2-(dimethylamino)ethyl)amino)methylene) cyclohexane-1,3-dione]
- pIC50: > 5.52

Structure (SMILES): CN(C)CCNC=C1C(=O)CC(c2ccc(F)cc2Br)CC1=O (centres unmarked) [Compound 305, 5-(2-bromo-4-fluorophenyl)-2-(((2-(dimethylamino)ethyl)amino)methylene) cyclohexane-1,3-dione]
- pIC50 [1]: > 5.52

Structure (SMILES): CN(C)CCNC=C1C(=O)CC(c2c(F)cccc2Br)CC1=O (centres unmarked) [Compound 306, 5-(2-bromo-6-fluorophenyl)-2-(((2-(dimethylamino)ethyl)amino)methylene) cyclohexane-1,3-dione]
- pIC50 [1]: > 5.52

Structure (SMILES): O=C1CC(c2ccccc2)CC(=O)C1=CNC(=O)c1ccccn1 (centres unmarked) [Compound 307, N-((2,6-dioxo-4-phenylcyclo-hexylidene)methyl) picolinamide]
- pIC50 [1]: 4.82 to 5.52

Structure (SMILES): CN(C)CCNC=C1C(=O)CC(c2ccccc2O)CC1=O (centres unmarked) [Compound 308, 2-(((2-(dimethylamino)ethyl)amino)methylene)-5-(2-hydroxyphenyl) cyclohexane-1,3-dione]
- pIC50 [1]: 4.82 to 5.52

Structure (SMILES): COc1ccccc1C1CC(=O)C(=CNCCN(C)C)C(=O)C1 (centres unmarked) [Compound 310, 2-(((2-(dimethylamino)ethyl)amino)methylene)-5-(2-methoxyphenyl) cyclohexane-1,3-dione]
- pIC50 [1]: > 5.52

Structure (SMILES): CN(C)CCNC=C1C(=O)CC(c2cccc([N+](=O)[O-])c2)CC1=O (centres unmarked) [Compound 311, 2-(((2-(dimethylamino)ethyl)amino)methylene)-5-(3-nitrophenyl) cyclohexane-1,3-dione]
- pIC50 [1]: > 5.52

Structure (SMILES): O=C1CC(c2ccc3cc[nH]c3c2)CC(=O)C1=CNCCN1CCN(CCO)CC1 (centres unmarked) [Compound 315, 2-(((2-(4-(2-hydroxyethyl)piperazin-1-yl)ethyl)amino)methylene)-5-(1H-indol-6-yl)cyclohexane-1,3-dione]
- pIC50 [1]: > 5.52

Structure (SMILES): O=C1Nc2ccc(C(F)(F)F)cc2C(=O)/C1=C/NCCN1CCN(CCO)CC1 [Compound 317, 3-(((2-(4-(2-hydroxyethyl)piperazin-1-yl)ethyl)amino)methylene)-6-(trifluoromethyl) quinoline-2,4(1H,3H)-dione]
- pIC50 [1]: 4.82 to 5.52

Structure (SMILES): O=C1Nc2c(cccc2[N+](=O)[O-])C(=O)/C1=C/NCCN1CCN(CCO)CC1 [Compound 318, 3-(((2-(4-(2-hydroxyethyl)piperazin-1-yl)ethyl)amino)methylene)-8-nitroquinoline-2,4(1H,3H)-dione]
- pIC50 [1]: > 5.52

Structure (SMILES): O=C1CC(c2ccccc2C(F)(F)F)CC(=O)C1=CNCCN1CCN(CCO)CC1 (centres unmarked) [Compound 320, 2-(((2-(4-(2-hydroxyethyl)piperazin-1-yl)ethyl)amino)methylene)-5-(2-(trifluoromethyl)phenyl) cyclohexane-1,3-dione]
- pIC50 [1]: > 5.52

Structure (SMILES): O=C1Nc2c(cccc2-c2ccccc2)C(=O)/C1=C\NCCN1CCN(CCO)CC1 [Compound 321, 3-(((2-(4-(2-hydroxyethyl)piperazin-1-yl)ethyl)amino)methylene)-8-phenylquinoline-2,4(1H,3H)-dione]
- pIC50 [1]: 4.82 to 5.52

Structure (SMILES): O=C1CC(c2cccc3[nH]cc(Cl)c23)CC(=O)C1=CNCCN1CCN(CCO)CC1 (centres unmarked) [Compound 322, 5-(3-chloro-1H-indol-4-yl)-2-(((2-(4-(2-hydroxyethyl)piperazin-1-yl)ethyl)amino)methylene) cyclohexane-1,3-dione]
- pIC50 [1]: > 5.52

Structure (SMILES): O=C1CC(c2ccccc2)C(c2ccccc2)C(=O)C1=CNCCN1CCN(CCO)CC1 (centres unmarked) [Compound 323, 2-(((2-(4-(2-hydroxyethyl)piperazin-1-yl)ethyl)amino)methylene)-4,5-diphenylcyclo-hexane-1,3-dione]
- pIC50 [1]: 4.82 to 5.52

Structure (SMILES): CC1(C)C(=O)C(=CNCCN2CCN(CCO)CC2)C(=O)CC1c1ccccc1 (centres unmarked) [Compound 324, 2-(((2-(4-(2-hydroxyethyl)piperazin-1-yl)ethyl)amino)methylene)-4,4-dimethyl-5-phenylcyclohexane-1,3-dione]
- pIC50 [1]: 4.82 to 5.52

Structure (SMILES): CC1C(=O)/C(=C/NCCN2CCN(CCO)CC2)C(=O)CC1(O)c1ccccc1 (centres unmarked) [Compound 325, 5-hydroxy-2-(((2-(4-(2-hydroxyethyl)piperazin-1-yl)ethyl)amino)methylene)-4-methyl-5-phenylcyclohexane-1,3-dione]
- pIC50 [1]: 4.00 to 4.82

Structure (SMILES): O=C(NCCN1CCN(CCO)CC1)C1C(=O)Nc2ccccc2C1=O (centres unmarked) [Compound 326, N-(2-(4-(2-hydroxyethyl)piperazin-1-yl)ethyl)-2,4-dioxo-1,2,3,4-tetrahydroquinoline-3-carboxamide]
- pIC50 [1]: 3.00 to 4.00

Structure (SMILES): N#CC1C(=O)C(=CNCCN2CCN(CCO)CC2)C(=O)CC1c1ccccc1 (centres unmarked) [Compound 327, 2-(((2-(4-(2-hydroxyethyl)piperazin-1-yl)ethyl)amino)methylene)-4-cyano-5-phenylcyclohexane-1,3-dione]
- pIC50 [1]: > 5.52
